Results taken from patent US20150141381A1, “TETRACYCLINE COMPOUNDS HAVING TARGET THERAPEUTIC ACTIVITIES” (Paratek Pharmaceuticals, Inc., priority 2001, published 2015).
Like-named read-outs stand apart in the source and are kept apart here.

How the values were obtained:
S. aureus RN450 = assay: In Vitro Anti-Bacterial Activity Assay (MIC), gram positive; assay type: cell-based; settings: Staphylococcus aureus, RN450, 18 h
E. coli mL308 225 = assay: In Vitro Anti-Bacterial Activity Assay (MIC), gram negative; assay type: cell-based; settings: Escherichia coli, ML308225, 18 h
[1] = gram positive bacteria, read-out: Antibiotic Activity Gram + (MIC)
[2] = gram negative bacteria, read-out: Antibiotic Activity Gram − (MIC)
[3] = MIC class, Table 3, read-out: Antibiotic Activity Gram +
[4] = MIC class, Table 3, read-out: Antibiotic Activity Gram −
[5] = read-out: Antibiotic Activity Gram − (MIC)
[6] = MIC class, Table 3 (Continued), read-out: Gram+ activity
[7] = MIC class, Table 3 (Continued), read-out: Gram− activity

Row | Structure (SMILES) | MIC (S. aureus RN450; [1]) [µg/mL] | MIC (E. coli mL308 225; [2]) [µg/mL] | MIC (S. aureus RN450; [3]) [µg/mL] | MIC (E. coli mL308 225; [4]) [µg/mL] | other results
1 | CCNCC(=O)NCc1cc(N(C)C)c2c(c1O)C(=O)C1=C(O)[C@]3(O)C(=O)C(C(N)=O)=C(O)[C@@H](N(C)C)[C@@H]3C[C@@H]1C2 | > 4 | > 4 |  |  | 
2 | CN(C)[C@@H]1C(O)=C(C(N)=O)C(=O)[C@@]2(O)C(O)=C3C(=O)c4c(O)ccc(CNCc5cccn5C)c4C[C@H]3C[C@@H]12 [KG] |  |  | < 4 | < 4 | 
3 | CN(C)c1cc(CNCC2CCOCC2)c(O)c2c1C[C@H]1C[C@H]3[C@H](N(C)C)C(O)=C(C(N)=O)C(=O)[C@@]3(O)C(O)=C1C2=O | < 4 | > 4 |  |  | 
4 | CN(C)c1cc(-c2ccoc2)c(O)c2c1C[C@H]1C[C@H]3[C@H](N(C)C)C(O)=C(C(N)=O)C(=O)[C@@]3(O)C(O)=C1C2=O [KU] |  |  | < 4 | > 4 | 
5 | CN(C)[C@@H]1C(O)=C(C(N)=O)C(=O)[C@@]2(O)C(O)=C3C(=O)c4c(O)c(CN)cc(-c5ccc(F)cc5)c4C[C@H]3C[C@@H]12 [DF] |  |  | < 4 | > 4 | 
6 | CN(C)[C@@H]1C(O)=C(C(N)=O)C(=O)[C@@]2(O)C(O)=C3C(=O)c4c(O)ccc(-c5ccncc5F)c4C[C@H]3C[C@@H]12 | < 4 | < 4 |  |  | 
7 | CN(C)[C@@H]1C(O)=C(C(N)=O)C(=O)[C@@]2(O)C(O)=C3C(=O)c4c(O)ccc(-c5ncccn5)c4C[C@H]3C[C@@H]12 | < 4 | < 4 |  |  | 
8 | CN(C)c1cc(NC(=O)Nc2ccc(OC(F)(F)F)cc2)c(O)c2c1C[C@H]1C[C@H]3[C@H](N(C)C)C(O)=C(C(N)=O)C(=O)[C@@]3(O)C(O)=C1C2=O [CG] |  |  | < 4 | > 4 | 
9 | CN(C)c1cc(C#Cc2ccc(N)cc2)c(O)c2c1C[C@H]1C[C@H]3[C@H](N(C)C)C(O)=C(C(N)=O)C(=O)[C@@]3(O)C(O)=C1C2=O [CX] |  |  | > 4 | > 4 | 
10 | COCc1ccc(O)c2c1C[C@H]1C[C@H]3[C@H](N(C)C)C(O)=C(C(N)=O)C(=O)[C@@]3(O)C(O)=C1C2=O | < 4 | < 4 |  |  | 
11 | CN(C)c1cc(CNC(=O)C(Cc2ccccc2)N(C)C)c(O)c2c1C[C@H]1C[C@H]3[C@H](N(C)C)C(O)=C(C(N)=O)C(=O)[C@@]3(O)C(O)=C1C2=O (stereo partly drawn) | < 4 | > 4 |  |  | 
12 | CN(C)c1cc(N2CCOCC2)c(O)c2c1C[C@H]1C[C@H]3[C@H](N(C)C)C(O)=C(C(N)=O)C(=O)[C@@]3(O)C(O)=C1C2=O | > 4 | > 4 |  |  | 
13 | CC(C)COC(=O)NCc1ccc(-c2ccc(O)c3c2C[C@H]2C[C@H]4[C@H](N(C)C)C(O)=C(C(N)=O)C(=O)[C@@]4(O)C(O)=C2C3=O)cc1 | < 4 | > 4 |  |  | 
14 | CN(C)Cc1cc(-c2ccc(O)c3c2C[C@H]2C[C@H]4[C@H](N(C)C)C(O)=C(C(N)=O)C(=O)[C@@]4(O)C(O)=C2C3=O)ccc1F [OQ] |  |  | < 4 | < 4 | 
15 | CN(C)[C@@H]1C(O)=C(C(N)=O)C(=O)[C@@]2(O)C(O)=C3C(=O)c4c(O)ccc(-c5ccc(CNCCF)cc5)c4C[C@H]3C[C@@H]12 | < 4 |  |  |  | MIC (E. coli mL308 225; [5]): < 4 µg/mL
16 | CN1CCN(Cc2ccc(-c3ccc(O)c4c3C[C@H]3C[C@H]5[C@H](N(C)C)C(O)=C(C(N)=O)C(=O)[C@@]5(O)C(O)=C3C4=O)cc2)CC1 [MF] |  |  | < 4 | < 4 | 
17 | CCCCc1ccc(-c2cc(N(C)C)c3c(c2O)C(=O)C2=C(O)[C@]4(O)C(=O)C(C(N)=O)=C(O)[C@@H](N(C)C)[C@@H]4C[C@@H]2C3)cc1 [EI] |  |  | > 4 | > 4 | 
18 | CCCCOc1cccc2c1C(=O)C1=C(O)[C@]3(O)C(=O)C(C(N)=O)=C(O)[C@@H](N(C)C)[C@@H]3C[C@@H]1C2 | > 4 | > 4 |  |  | 
19 | CN(C)C1C(O)=C(C(N)=O)C(=O)[C@@]2(O)C(O)=C3C(=O)c4c(O)ccc(CNC5CCCC5)c4C[C@H]3C[C@@H]12 (stereo partly drawn) [NE] |  |  | < 4 | < 4 | 
20 | CN(C)[C@@H]1C(O)=C(C(N)=O)C(=O)[C@@]2(O)C(O)=C3C(=O)c4c(O)ccc(-c5ccncc5Cl)c4C[C@H]3C[C@@H]12 | < 4 | < 4 |  |  | 
21 | COc1ccc(CN(C)C)cc1-c1cc(C(C)(C)C)c(O)c2c1C[C@H]1C[C@H]3[C@H](N(C)C)C(O)=C(C(N)=O)C(=O)[C@@]3(O)C(O)=C1C2=O | < 4 | > 4 |  |  | 
22 | CN(C)[C@@H]1C(O)=C(C(N)=O)C(=O)[C@@]2(O)C(O)=C3C(=O)c4c(O)c(CN5CCOCC5)cc(-c5ccoc5)c4C[C@H]3C[C@@H]12 [QA] |  |  | < 4 | < 4 | 
23 | COc1ccc(CNCC(C)C)cc1-c1ccc(O)c2c1C[C@H]1C[C@H]3[C@H](N(C)C)C(O)=C(C(N)=O)C(=O)[C@@]3(O)C(O)=C1C2=O [EG] |  |  | < 4 | < 4 | 

Row | Structure (SMILES) | MIC (S. aureus RN450; [1]) [µg/mL] | MIC (E. coli mL308 225; [2]) [µg/mL] | MIC (S. aureus RN450; [3]) [µg/mL] | MIC (E. coli mL308 225; [4]) [µg/mL] | other results
24 | CCC(=O)Nc1ccc2c(c1O)C(=O)C1=C(O)[C@]3(O)C(=O)C(C(N)=O)=C(O)[C@@H](N(C)C)[C@@H]3C[C@@H]1C2 | < 4 | < 4 |  |  | 
25 | CC1c2ccc(C3(C)CCCC3)c(O)c2C(=O)C2=C(O)[C@]3(O)C(=O)C(C(N)=O)=C(O)[C@@H](N(C)C)[C@@H]3[C@@H](O)[C@@H]21 (stereo partly drawn) |  |  |  |  | MIC (S. aureus RN450; [6]): < 4 µg/mL; MIC (E. coli mL308 225; [7]): < 4 µg/mL
26 | Cc1ccc(-c2ccc(O)c3c2C[C@H]2C[C@H]4[C@H](N(C)C)C(O)=C(C(N)=O)C(=O)[C@@]4(O)C(O)=C2C3=O)cc1 |  |  |  |  | MIC (S. aureus RN450; [6]): < 4 µg/mL; MIC (E. coli mL308 225; [7]): < 4 µg/mL
27 | CN(C)[C@@H]1C(O)=C(C(N)=O)C(=O)[C@@]2(O)C(O)=C3C(=O)c4c(O)ccc(CCCNS(C)(=O)=O)c4C[C@H]3C[C@@H]12 [CQ] |  |  | < 4 | > 4 | 
28 | COc1cc(C/C=C\c2ccc(O)c3c2C[C@H]2C[C@H]4[C@H](N(C)C)C(O)=C(C(N)=O)C(=O)[C@@]4(O)C(O)=C2C3=O)ccc1O [BW] |  |  | < 4 | > 4 | 
29 | CC(=O)NCc1cc(N(C)C)c2c(c1O)C(=O)C1=C(O)[C@]3(O)C(=O)C(C(N)=O)=C(O)[C@@H](N(C)C)[C@@H]3C[C@@H]1C2 | < 4 | > 4 |  |  | 
30 | CN(C)[C@@H]1C(O)=C(C(N)=O)C(=O)[C@@]2(O)C(O)=C3C(=O)c4c(O)ccc(-c5ccc(CN6CCOCC6)c6ccccc56)c4C[C@H]3C[C@@H]12 | < 4 | < 4 |  |  | 
31 | CC(CF)NCc1cc(N(C)C)c2c(c1O)C(=O)C1=C(O)[C@]3(O)C(=O)C(C(N)=O)=C(O)[C@@H](N(C)C)[C@@H]3C[C@@H]1C2 (stereo partly drawn) | < 4 |  |  |  | MIC (E. coli mL308 225; [5]): > 4 µg/mL
32 | CC(=O)c1ccc(O)c2c1C[C@H]1C[C@H]3[C@H](N(C)C)C(O)=C(C(N)=O)C(=O)[C@@]3(O)C(O)=C1C2=O [BJ] |  |  | < 4 | < 4 | 
33 | CN(C)[C@@H]1C(O)=C(C(N)=O)C(=O)[C@@]2(O)C(O)=C3C(=O)c4c(O)ccc(-c5ccc(C(=O)O)cc5)c4C[C@H]3C[C@@H]12 [BN] |  |  | < 4 | > 4 | 
34 | CCOP(=O)(OCC)C(Nc1ccccc1)c1ccc(-c2cc(N(C)C)c3c(c2O)C(=O)C2=C(O)[C@]4(O)C(=O)C(C(N)=O)=C(O)C(N(C)C)[C@@H]4C[C@@H]2C3)cc1 (stereo partly drawn) [DS] |  |  |  |  | MIC (S. aureus RN450; read-out: Antibiotic Activity Gram +): < 4 µg/mL; MIC (E. coli mL308 225; read-out: Antibiotic Activity Gram −): > 4 µg/mL
35 | COc1cccc(CCc2ccc(O)c3c2C[C@H]2C[C@H]4[C@H](N(C)C)C(O)=C(C(N)=O)C(=O)[C@@]4(O)C(O)=C2C3=O)c1 [BK] |  |  | < 4 | > 4 | 
36 | CN(C)c1cc(-c2ccc(CN3CCN(c4ccccc4F)CC3)o2)c(O)c2c1C[C@H]1C[C@H]3[C@H](N(C)C)C(O)=C(C(N)=O)C(=O)[C@@]3(O)C(O)=C1C2=O | > 4 | > 4 |  |  | 
37 | C=C(Cl)c1cc(C(C)(C)C)c(O)c2c1C[C@H]1C[C@H]3[C@H](N(C)C)C(O)=C(C(N)=O)C(=O)[C@@]3(O)C(O)=C1C2=O | < 4 | < 4 |  |  | 
38 | COc1ccc(C#Cc2cc(C#Cc3ccc(OC)cc3)c3c(c2O)C(=O)C2=C(O)[C@]4(O)C(=O)C(C(N)=O)=C(O)[C@@H](N(C)C)[C@@H]4C[C@@H]2C3)cc1 [BS] |  |  | > 4 | > 4 | 
39 | CN(C)[C@@H]1C(O)=C(C(N)=O)C(=O)[C@@]2(O)C(O)=C3C(=O)c4c(O)ccc(C#CC5=CCCCC5)c4C[C@H]3C[C@@H]12 |  |  |  |  | MIC (S. aureus RN450; [6]): < 4 µg/mL; MIC (E. coli mL308 225; [7]): < 4 µg/mL
40 | COC(=O)c1cc(NC(=O)c2ccno2)cc(-c2ccc(O)c3c2C[C@H]2C[C@H]4[C@H](N(C)C)C(O)=C(C(N)=O)C(=O)[C@@]4(O)C(O)=C2C3=O)c1 [IK] |  |  | < 4 | > 4 | 
41 | CN(C)c1ccc(O)c2c1C[C@H]1C[C@H]3[C@H](N(C)C)C(O)=C(C#N)C(=O)[C@@]3(O)C(O)=C1C2=O | > 4 | > 4 |  |  | 
42 | CN(C)C(=O)C(=O)c1ccc(O)c2c1C[C@H]1C[C@H]3C(N(C)C)C(O)=C(C(N)=O)C(=O)[C@@]3(O)C(O)=C1C2=O (stereo partly drawn) [MR] |  |  | < 4 | < 4 | 
43 | CN(C)[C@@H]1C(O)=C(C(N)=O)C(=O)[C@@]2(O)C(O)=C3C(=O)c4c(O)c(C(C)(C)C)cc(CNC(=O)c5cccnc5)c4C[C@H]3C[C@@H]12 [CE] |  |  | > 4 | > 4 | 
44 | Cc1cc(-c2ccc(O)c3c2C[C@H]2C[C@H]4[C@H](N(C)C)C(O)=C(C(N)=O)C(=O)[C@@]4(O)C(O)=C2C3=O)cc(C)n1 [PD] |  |  | < 4 | < 4 | 
45 | CN(C)c1cc(NC(=O)Nc2ccccc2)c(O)c2c1C[C@H]1C[C@H]3[C@H](N(C)C)C(O)=C(C(N)=O)C(=O)[C@@]3(O)C(O)=C1C2=O [CB] |  |  | < 4 | > 4 | 
